Measured values reported in patent US5821353A, “DNA encoding 1,3 beta-D glucan synthase subunits” (Merck & Co., Inc., priority 1996, dated 1998).

Key:
Pneumocystis carinii = settings: rat model of P. carinii pneumonia; Schmatz et al. 1990; cited from earlier work
[1] = tested on: S. cerevisiae wild type YFK0005; assay: MIC assay; type: cell-based, Saccharomyces cerevisiae; settings: less than 10% growth of no-drug control, 42 hours, 28° C.
Description: (§1) The sensitivities of pcr1(fks2-1) fks1-1 and pcr1(fks2-1) FKS1 strains to L-733,560, L-636,947 (Aculeacin), and L-687,781 (Dihydropapulocandin) were determined in MIC assays. Briefly, strains were grown to stationary phase in 5.0 ml of liquid YPAD medium. MY2256 precultures were grown in liquid YPAD10Ca. MIC assays were performed in flat well microtiter plates in triplicate. Each well of the microtiter plate was filled with 100 mcL of YPAD medium. To the first well, 100 mcL of a 4× solution of drug in YPAD medium was added. To serve as a control, a stock solution of […] of YPAD was made. 100 mcL of this solution was added to the initial well for strains grown in the presence of solvent but the absence of drug. Two-fold serial dilutions of the drug were performed down the plate.
(§2) Cultures were diluted to 5×10^5 cells/ml in YPAD (1 OD660 =3.3×10^7 cells/ml). 100 mcL of diluted culture was added to each well, resuspended, and incubated at 28° C. After 42 hours, cultures were resuspended and cells densities measured in an SLT Laboratories 340 ATTC microtiter plate reader. The MICs concentrations presented in the table below represent the concentrations of drug that result in less than 10% growth of the strain grown in the absence of drug.

[2] = tested on: S. cerevisiae FKS1 pcr1 (fks2-1): MY2257, MY2258; assay: MIC assay; type: cell-based, Saccharomyces cerevisiae; settings: less than 10% growth, 42 hours
Description: as §1, §2

[3] = tested on: S. cerevisiae fks1-1 pcr1 (fks2-1): MY2256, YFK0996-11B, MY2259, MY2260; assay: MIC assay; type: cell-based, Saccharomyces cerevisiae; settings: less than 10% growth, 42 hours
Description: as §1, §2

[4] = tested on: S. cerevisiae fks1-1 PCR1 YFK0688-14B; assay: MIC assay; type: cell-based, Saccharomyces cerevisiae; settings: less than 10% growth of no-drug control, 42 hours, 28° C.
Description: as §1, §2

dihydropapulacandin [L-687,781]
reducing the number of cysts in the lungs of infected rats (Pneumocystis carinii): effective
MIC [1]: 40 µg/mL
MIC [2]: > 40 µg/mL
MIC [3]: > 40 µg/mL
MIC [4]: 10 µg/mL
